Laboratory results reported in US7553864B2, “Compounds for the treatment of inflammatory disorders and microbial diseases” (Schering Corporation, priority 2005, dated 2009).

Tested on: LpxC enzyme
Assay: LpxC enzyme assay (RapidFire high-throughput mass spectrometry)
Format: biochemical
Conditions: concentration 0.10 (unit not given)
Method: The standard LpxC assay consists of 0.2 nM LpxC enzyme, 1.0 μM UDP-3-O—(R-3-hydroxymyristoyl)-N-acetylglucosamine, and test compound, in assay buffer and 2% DMSO. Assay buffer is comprised of 25 mM HEPES, pH 7.3, 150 mM NaCl, 2.0 mM DTT, and 0.01% BSA. The enzyme reaction is carried out in a 96-well assay plate, in a final volume of 102 μL. Solutions of test compounds are prepared in 100% DMSO. Reaction additions, in order, are (1) 2.0 μL compound solution, (2) 80 μL of assay buffer, (3) 10 μL of 10 μM UDP-3-O—(R-3-hydroxymyristoyl)-N-acetylglucosamine (in assay buffer) and, (4) 10 μL of LpxC enzyme (20 nM in assay buffer) to initiate the reaction. In positive control reactions, addition (1) has 2.0 μL of 100% DMSO (without compound); these reactions are used as the total signal (TSB) value. Reactions are incubated at room temperature for 60 minutes when 10 μL of 1 N HCl is added to stop the reaction. The plate is shaken by hand for 10 seconds to ensure complete quenching. Assay plates are sealed with foil tape, and stored at −80° C. for 24-48 hr prior to analysis.
The concentrations of substrate and product in the reaction mixtures are determined with BioTrove's proprietary RapidFire™ high-throughput mass spectrometry (HTMS). Assay mixtures are partially purified with reverse phase chromatography, where they are washed with water containing 5 mM ammonium formate and eluted onto the mass spectrometer in 80% acetonitrile, 20% water, and 5 mM ammonium formate. The mass spectrometry peak areas of the substrate and product are measured to determine the concentration of these analytes. The assay signal is the percentage of substrate that is converted to product. Percent inhibition, % I, in test samples is determined from the following equation: […]

| SMILES | LpxC enzyme assay rating (% inhibition at indicated concentrations) |
| --- | --- |
| CCCc1ccc(NC(=O)[C@H](O)[C@@H](O)C(=O)N(C)C)cc1 [Compound 49] | C (less than 10% inhibition) |
| CCC(C)c1ccc(NC(=O)[C@H](O)[C@@H](O)C(=O)N(C)C)cc1 (some centres unmarked) [Compound 50] | C (less than 10% inhibition) |
| CN(C)C(=O)[C@H](O)[C@@H](O)C(=O)N1CCC(c2ccc(C(F)(F)F)cc2)CC1 [Compound 51] | B (10-30% inhibition) |
| CN(C)C(=O)[C@H](O)[C@@H](O)C(=O)N1CCC(c2ccc3ccccc3c2)CC1 [Compound 52] | C (less than 10% inhibition) |
| CN(C)C(=O)[C@H](O)[C@@H](O)C(=O)Nc1ccc(Oc2ccccc2)cc1 [Compound 53] | C (less than 10% inhibition) |

Same assay, conditions: concentration 0.20 (unit not given)

| SMILES | LpxC enzyme assay rating (% inhibition at indicated concentrations) |
| --- | --- |
| CCCc1ccc(NC(=O)[C@H](O)[C@@H](O)C(=O)N(C)C)cc1 [Compound 49] | C (less than 10% inhibition) |
| CCC(C)c1ccc(NC(=O)[C@H](O)[C@@H](O)C(=O)N(C)C)cc1 (some centres unmarked) [Compound 50] | C (less than 10% inhibition) |
| CN(C)C(=O)[C@H](O)[C@@H](O)C(=O)N1CCC(c2ccc(C(F)(F)F)cc2)CC1 [Compound 51] | C (less than 10% inhibition) |
| CN(C)C(=O)[C@H](O)[C@@H](O)C(=O)N1CCC(c2ccc3ccccc3c2)CC1 [Compound 52] | C (less than 10% inhibition) |
| CN(C)C(=O)[C@H](O)[C@@H](O)C(=O)Nc1ccc(Oc2ccccc2)cc1 [Compound 53] | C (less than 10% inhibition) |

Same assay, conditions: concentration 0.39 (unit not given)

| SMILES | LpxC enzyme assay rating (% inhibition at indicated concentrations) |
| --- | --- |
| CCCc1ccc(NC(=O)[C@H](O)[C@@H](O)C(=O)N(C)C)cc1 [Compound 49] | B (10-30% inhibition) |
| CCC(C)c1ccc(NC(=O)[C@H](O)[C@@H](O)C(=O)N(C)C)cc1 (some centres unmarked) [Compound 50] | C (less than 10% inhibition) |
| CN(C)C(=O)[C@H](O)[C@@H](O)C(=O)N1CCC(c2ccc(C(F)(F)F)cc2)CC1 [Compound 51] | C (less than 10% inhibition) |
| CN(C)C(=O)[C@H](O)[C@@H](O)C(=O)N1CCC(c2ccc3ccccc3c2)CC1 [Compound 52] | C (less than 10% inhibition) |
| CN(C)C(=O)[C@H](O)[C@@H](O)C(=O)Nc1ccc(Oc2ccccc2)cc1 [Compound 53] | C (less than 10% inhibition) |

Same assay, conditions: concentration 0.78 (unit not given)

| SMILES | LpxC enzyme assay rating (% inhibition at indicated concentrations) |
| --- | --- |
| CCCc1ccc(NC(=O)[C@H](O)[C@@H](O)C(=O)N(C)C)cc1 [Compound 49] | C (less than 10% inhibition) |
| CCC(C)c1ccc(NC(=O)[C@H](O)[C@@H](O)C(=O)N(C)C)cc1 (some centres unmarked) [Compound 50] | B (10-30% inhibition) |
| CN(C)C(=O)[C@H](O)[C@@H](O)C(=O)N1CCC(c2ccc(C(F)(F)F)cc2)CC1 [Compound 51] | C (less than 10% inhibition) |
| CN(C)C(=O)[C@H](O)[C@@H](O)C(=O)N1CCC(c2ccc3ccccc3c2)CC1 [Compound 52] | C (less than 10% inhibition) |
| CN(C)C(=O)[C@H](O)[C@@H](O)C(=O)Nc1ccc(Oc2ccccc2)cc1 [Compound 53] | B (10-30% inhibition) |

Same assay, conditions: concentration 1.56 (unit not given)

| SMILES | LpxC enzyme assay rating (% inhibition at indicated concentrations) |
| --- | --- |
| CCCc1ccc(NC(=O)[C@H](O)[C@@H](O)C(=O)N(C)C)cc1 [Compound 49] | C (less than 10% inhibition) |
| CCC(C)c1ccc(NC(=O)[C@H](O)[C@@H](O)C(=O)N(C)C)cc1 (some centres unmarked) [Compound 50] | C (less than 10% inhibition) |
| CN(C)C(=O)[C@H](O)[C@@H](O)C(=O)N1CCC(c2ccc(C(F)(F)F)cc2)CC1 [Compound 51] | B (10-30% inhibition) |
| CN(C)C(=O)[C@H](O)[C@@H](O)C(=O)N1CCC(c2ccc3ccccc3c2)CC1 [Compound 52] | C (less than 10% inhibition) |
| CN(C)C(=O)[C@H](O)[C@@H](O)C(=O)Nc1ccc(Oc2ccccc2)cc1 [Compound 53] | C (less than 10% inhibition) |

Same assay, conditions: concentration 3.13 (unit not given)

| SMILES | LpxC enzyme assay rating (% inhibition at indicated concentrations) |
| --- | --- |
| CCCc1ccc(NC(=O)[C@H](O)[C@@H](O)C(=O)N(C)C)cc1 [Compound 49] | C (less than 10% inhibition) |
| CCC(C)c1ccc(NC(=O)[C@H](O)[C@@H](O)C(=O)N(C)C)cc1 (some centres unmarked) [Compound 50] | C (less than 10% inhibition) |
| CN(C)C(=O)[C@H](O)[C@@H](O)C(=O)N1CCC(c2ccc(C(F)(F)F)cc2)CC1 [Compound 51] | C (less than 10% inhibition) |
| CN(C)C(=O)[C@H](O)[C@@H](O)C(=O)N1CCC(c2ccc3ccccc3c2)CC1 [Compound 52] | C (less than 10% inhibition) |
| CN(C)C(=O)[C@H](O)[C@@H](O)C(=O)Nc1ccc(Oc2ccccc2)cc1 [Compound 53] | C (less than 10% inhibition) |

Same assay, conditions: concentration 6.25 (unit not given)

| SMILES | LpxC enzyme assay rating (% inhibition at indicated concentrations) |
| --- | --- |
| CCCc1ccc(NC(=O)[C@H](O)[C@@H](O)C(=O)N(C)C)cc1 [Compound 49] | C (less than 10% inhibition) |
| CCC(C)c1ccc(NC(=O)[C@H](O)[C@@H](O)C(=O)N(C)C)cc1 (some centres unmarked) [Compound 50] | B (10-30% inhibition) |
| CN(C)C(=O)[C@H](O)[C@@H](O)C(=O)N1CCC(c2ccc(C(F)(F)F)cc2)CC1 [Compound 51] | C (less than 10% inhibition) |
| CN(C)C(=O)[C@H](O)[C@@H](O)C(=O)N1CCC(c2ccc3ccccc3c2)CC1 [Compound 52] | B (10-30% inhibition) |
| CN(C)C(=O)[C@H](O)[C@@H](O)C(=O)Nc1ccc(Oc2ccccc2)cc1 [Compound 53] | C (less than 10% inhibition) |

Same assay, conditions: concentration 12.50 (unit not given)

| SMILES | LpxC enzyme assay rating (% inhibition at indicated concentrations) |
| --- | --- |
| CCCc1ccc(NC(=O)[C@H](O)[C@@H](O)C(=O)N(C)C)cc1 [Compound 49] | C (less than 10% inhibition) |
| CCC(C)c1ccc(NC(=O)[C@H](O)[C@@H](O)C(=O)N(C)C)cc1 (some centres unmarked) [Compound 50] | B (10-30% inhibition) |
| CN(C)C(=O)[C@H](O)[C@@H](O)C(=O)N1CCC(c2ccc(C(F)(F)F)cc2)CC1 [Compound 51] | C (less than 10% inhibition) |
| CN(C)C(=O)[C@H](O)[C@@H](O)C(=O)N1CCC(c2ccc3ccccc3c2)CC1 [Compound 52] | B (10-30% inhibition) |
| CN(C)C(=O)[C@H](O)[C@@H](O)C(=O)Nc1ccc(Oc2ccccc2)cc1 [Compound 53] | C (less than 10% inhibition) |

Same assay, conditions: concentration 25 (unit not given)

| SMILES | LpxC enzyme assay rating (% inhibition at indicated concentrations) |
| --- | --- |
| CCCc1ccc(NC(=O)[C@H](O)[C@@H](O)C(=O)N(C)C)cc1 [Compound 49] | B (10-30% inhibition) |
| CCC(C)c1ccc(NC(=O)[C@H](O)[C@@H](O)C(=O)N(C)C)cc1 (some centres unmarked) [Compound 50] | C (less than 10% inhibition) |
| CN(C)C(=O)[C@H](O)[C@@H](O)C(=O)N1CCC(c2ccc(C(F)(F)F)cc2)CC1 [Compound 51] | B (10-30% inhibition) |
| CN(C)C(=O)[C@H](O)[C@@H](O)C(=O)N1CCC(c2ccc3ccccc3c2)CC1 [Compound 52] | B (10-30% inhibition) |
| CN(C)C(=O)[C@H](O)[C@@H](O)C(=O)Nc1ccc(Oc2ccccc2)cc1 [Compound 53] | C (less than 10% inhibition) |

Same assay, conditions: concentration 50 (unit not given)

| SMILES | LpxC enzyme assay rating (% inhibition at indicated concentrations) |
| --- | --- |
| CCCc1ccc(NC(=O)[C@H](O)[C@@H](O)C(=O)N(C)C)cc1 [Compound 49] | C (less than 10% inhibition) |
| CCC(C)c1ccc(NC(=O)[C@H](O)[C@@H](O)C(=O)N(C)C)cc1 (some centres unmarked) [Compound 50] | B (10-30% inhibition) |
| CN(C)C(=O)[C@H](O)[C@@H](O)C(=O)N1CCC(c2ccc(C(F)(F)F)cc2)CC1 [Compound 51] | B (10-30% inhibition) |
| CN(C)C(=O)[C@H](O)[C@@H](O)C(=O)N1CCC(c2ccc3ccccc3c2)CC1 [Compound 52] | A (greater than 30% inhibition) |
| CN(C)C(=O)[C@H](O)[C@@H](O)C(=O)Nc1ccc(Oc2ccccc2)cc1 [Compound 53] | C (less than 10% inhibition) |
